Values of other authors as cited in patent US10543230B2, “Redox signaling gel formulation” (RDG Holdings, Inc., priority 2013, dated 2020).

Settings: pH around 7.0, room temperature

SMILES	half-life
O=[O+][O-] [dissolved ozone (O3), ozone]	about 20 min
[O]O [superoxide free radicals (O2*-), superoxide]	10's of milliseconds
